Measurements as given in patent US20230381139A1, “METHODS OF TREATING AND/OR PREVENTING ALZHEIMER’S DISEASE WITH R-CARVEDILOL” (priority 2020, published 2023).

Experiments:
[1] = test system: 5×FAD+/− mice; assay: Learning and memory tests (Morris water maze, novel object recognition) in 5×FAD+/− mice; format: in vivo, mouse; details: for learning and memory impairments (MWM, NOR): 4-6 months old 5×FAD mice
Procedure: (§1) Adult genetically engineered mice, 5×FAD^+/− (Oakley et al., 2006), RyR2-E4872Q^+/− (EQ^+/−) (Chen et al., 2014), 5×FAD^+/−/RyR2-E4872Q^+/− (5×FAD^+/−/EQ^+/−), and wildtype (WT) littermates of both sexes were used. R-carvedilol (R-CV) (at doses of 0.8, 1.6 or 3.2 mg/kg/day), racemic carvedilol (3.2 mg/kg/day), and vehicle control (DMSO) were delivered to 5×FAD^+/− mice in drinking water for one month, starting at different ages before (2-3 months old) or after (3-4 months old) the occurrence of AD pathologies (Oakley et al., 2006). To assess the effects of genetically and pharmacologically limiting RyR2 open time on the prevention and rescue of AD deficits in different stages (early, moderate, and late) of AD progression, animals at different ages (from 2-15 months) were used. As reported (Oakley et al., 2006), there was an age-dependence of AD progression in the 5×FAD^+/− mice. No sex-dependent differences in AD progression in these mice was observed. For 2-photon Ca^2+ imaging experiments, 5×FAD, RyR2 WT, and RyR2 mutant mice were cross-bred with the heterozygous Thy1-GCaMP6f transgenic mice (Chen et al., 2012; Chen et al., 2013) (GP5.17, JAX 025393) to express the GCaMP6f Ca^2+ sensing probe (driven by the Thy1 promotor) in hippocampal neurons in each of the genotypes used.
The learning and memory of mice with all genotypes were evaluated using the Morris water maze (MWM) test, the Barnes maze (BM) test, and/or the novel object recognition (NOR) test. Experiments were carried out blindly. For the MWM test, mice at different ages were trained to localize a hidden escape platform (10×10 cm) in a circular pool (116.84 cm in diameter, 50 cm in depth) (San Diego Instruments, CA) via distal visual cue. The platform was submerged 1-2 cm beneath the surface in water (22-24°C.), which was rendered opaque by addition of milk powder. The localization of the pool in relation to visual cues was maintained constantly during the entire task. The cues were distinct in color and shape. Digital division of the tracking area (pool) into four quadrants was performed by the SMART video tracking system, Smart 3.0 (Panlab Harvard Apparatus; Barcelona Spain). The escape platform was placed in the centre of the south-west quadrant for the entirety of the learning phase (4 training days) and digitally defined as target. Spatial training consisted of 4 days with 5 trials per mouse per day. Mice were released with their heads facing the pool wall at one of four entry locations (north, east, south and west) in a non-repetitive random order. Swimming was automatically video-tracked until the subject found the escape platform and remained on it (≥5 sec), or until a maximum of 60 seconds. […] In between trials (inter-trial interval ≥10 min), mice were housed in heated cages to avoid performance deficits due to exhaustion or hypothermia. The latency and swimming speed to reach the escape platform were recorded for comparison. After the learning phase, memory retention was evaluated by one probe trial 24 hours after the last training session. The escape platform was removed before mice were released from the north entry point into the pool. Their swimming was video-tracked for 60 seconds. The area at the location of the removed hidden platform was defined as the target and the south-west quadrant the target quadrant. The percentage of time mice spent in the target quadrant (including the target) were measured for comparison.
For the NOR test, mice were habituated for 10 min per mouse in an equally illuminated, odor-free, white, plastic box (40×40×50 cm^3) embedded with fresh aspen shavings and shreds. In between each mouse trial the box was wiped with ethanol to avoid odor-induced stress. 24 hours after habituation, two identical objects ware placed at equal distance to each other and the corners of the box. Each mouse was placed into the center, and allowed to move freely for 10 min. Mice were video recorded during this familiarizing phase. […]

[2] = test system: 5×FAD+/− hippocampal CA1 neurons; assay: In vivo two-photon Ca2+ imaging of CA1 neurons (neuronal hyperactivity) in 5×FAD+/− mice; parameters: species or system mouse
Procedure: as §1
To determine whether limiting RyR2 open time can suppress AD-associated neuronal hyperactivity in vivo, double heterozygous 5×FAD^+/−/E4872Q^+/− mice were crossed with the heterozygous Thy-1 GCaMP6f^+/− transgenic mice (GP5.17, JAX 025393) to introduce the GCaMP6f^+/− transgene into each of the four genotypes (driven by the Thy1 promotor). In vivo two-photon imaging of GCaMP6f-expressing CA1 pyramidal neurons in each of the four genotypes to monitor spontaneous Ca^2+ transients was performed.
Neuronal hyperactivity has been reported in anesthetized AD model mice in vivo using two-photon Ca^2 + imaging (Busche et al., 2008; Busche et al., 2012; Lerdkrai et al., 2018; Busche et al., 2019). To facilitate comparison, the same approach described originally by Busche et al. and used by others in the field (Busche et al., 2012; Busche et al., 2008; Delekate et al., 2014; Eichhoff and Garaschuk, 2011; Kim et al., 2016; Takano et al., 2007; Zott et al., 2019) was employed. Craniotomy was performed according to the protocol reported previously (Busche, 2018; Busche et al., 2012; Busche et al., 2008) with some modifications. […] The body temperature was monitored and controlled at 36.5-37.5° C. during the entire surgery and imaging procedure. […] Besides the core body temperature, the respiratory and pulse rate were continuously monitored (MouseOx plus. STARR Life Science Corp.). […]

[3] = 3.2 mg/kg/day for one month, started at 2-3 or 3-4 months of age (both ages), vs vehicle pre-treated 5×FAD+/− mice

COc1ccccc1OCCNC[C@@H](O)COc1cccc2[nH]c3ccccc3c12 [R-carvedilol, R-(+)-carvedilol]
learning and memory impairments (MWM, NOR) ([1]; 1.6 mg/kg/day for one month, vs DMSO): rescued
memory loss / learning and memory deficits (MWM, NOR) ([1]; 3.2 mg/kg/day for one month started at 2-3 months of age (before AD symptoms), tested at 3-4 months, vs DMSO): prevented
memory loss (MWM, NOR) ([1]; 3.2 mg/kg/day for one month started at 3-4 months of age (after AD symptom), tested at 4-5 months, vs DMSO): rescued
learning and memory impairments (MWM, NOR) ([1]; 3.2 mg/kg/day for one month, vs DMSO): rescued
beneficial effect on learning and memory, dependence on dose ([1]; 0.8, 1.6, 3.2 mg/kg/day for one month, 5×FAD mice): dose-dependent
memory deficits (MWM, NOR) ([1]; 6-7 and 10-12 months old 5×FAD+/− mice (late stages of AD), 3.2 mg/kg/day for 1 month, vs DMSO): rescued
fraction of hyperactive neurons [2, 3]: significantly lower
mean frequency of spontaneous Ca2+ transients [2, 3]: significantly lower
overall spontaneous neuronal activity (cumulative probability analysis) [2, 3]: significantly lower
neuronal hyperactivity of 5×FAD+/− hippocampal CA1 neurons in vivo ([2]; 3.2 mg/kg/day in drinking water for one month, started at 2-3 months (before AD pathology) or 3-4 months (after) of age, vs DMSO vehicle): prevented and rescued
